15 molecules from patent US5401761A, “Thiazolidinedione hypoglycemic agents” (Pfizer, Inc., priority 1993, dated 1995) can be followed below.

The test system of one assay is OB/OB MOUSE. In words: Hypoglycemic activity in the ob/ob mouse. It counts as in vivo, mouse (C57 BL/6J-ob/ob). The following applies: ob/ob mouse; dosed daily for five days; positive control ciglitazone 50 mg/kg; X = H; 7200 min. The source says:
The present compounds of the formula (I) are readily adapted to clinical use as hypoglycemic or hypocholesterolemic agents. The activity required for the former clinical use is defined by the test for hypoglycemic effect in ob/ob mice by the following procedure:
Five to eight week old C57 BL/6J-ob/ob mice (obtained from Jackson Laboratory, Bar Harbor, Me.) were housed five per cage under standard animal care practices. After a one week acclimation period, the animals were weighed and 25 microliters of blood was collected via an ocular bleed prior to any treatment. The blood sample was immediately diluted 1:5 with saline containing 2.5 mg/ml sodium fluoride and 2% sodium heparin, and held on ice for metabolite analysis. […] Bull., vol. […] All drugs were administered in a vehicle consisting of 0.25% w/v methyl cellulose. On day 5, the animals were weighed again and bled (via the ocular route) for blood metabolite levels. The freshly collected samples were centrifuged for two minutes at […] at room temperature. The supernatant was analyzed for glucose, for example, by the ABA 200 Bichromatic Analyzer™*, using the A-gent™^1 glucose UV reagent system*^2 (hexokinase method) using 20, 60 and 100 mg/dl standards. Plasma glucose was then calculated by the equation,
Test compounds are reported in terms of % glucose normalization. For example, a glucose level which is the same as the positive control is reported as 100%.
Take `Cc1oc(C2CCCCC2)nc1Cc1cc2cc(CC3SC(=O)NC3=O)ccc2o1` (stereo not drawn) [cyclohexyl, X = H, 5-[(2-(2-cyclohexyl-5-methyl-4-oxazolyl)methyl)-5-benzofuranylmethyl]-2,4-thiazolidinedione]: the “ED50 (Present Invention, X = H): concentration required to give hypoglycemic activity equivalent to 50% of the positive control” value is recorded as 0.05 mg/kg. In the case of `Cc1oc(-c2cccc(F)c2)nc1Cc1cc2cc(CC3SC(=O)NC3=O)ccc2o1` (stereo not drawn) [m-fluorophenyl, X = H, 5-[(2-(2-(3-fluorophenyl)-5-methyl-4-oxazolyl)methyl)-5-benzofuranylmethyl]-2,4-thiazolidinedione], the “ED50 (Present Invention, X = H): concentration required to give hypoglycemic activity equivalent to 50% of the positive control” value amounted to 0.05 mg/kg. On the same count and under the same terms, to `Cc1cccc(-c2nc(Cc3cc4cc(CC5SC(=O)NC5=O)ccc4o3)c(C)o2)c1` (stereo not drawn) [m-methylphenyl, X = H, 5-[(2-(5-methyl-2-(3-methylphenyl)-4-oxazolyl)-methyl)-5-benzofuranylmethyl]2,4-thiazolidinedione] belongs < 0.005 mg/kg; to `Cc1oc(-c2ccccc2F)nc1Cc1cc2cc(CC3SC(=O)NC3=O)ccc2o1` (stereo not drawn) [o-fluorophenyl, X = H, 5-[(2-(2-(2-fluorophenyl)-5-methyl-4-oxazolyl)methyl)-5-benzofuranylmethyl]-2,4-thiazolidinedione], 0.01 mg/kg. Take `Cc1ccccc1-c1nc(Cc2cc3cc(CC4SC(=O)NC4=O)ccc3o2)c(C)o1` (stereo not drawn) [o-methylphenyl, X = H]: the “ED50 (Present Invention, X = H): concentration required to give hypoglycemic activity equivalent to 50% of the positive control” value is reported as 0.05 mg/kg. Still for that read-out and setting: to `Cc1oc(-c2ccc(Cl)cc2)nc1Cc1cc2cc(CC3SC(=O)NC3=O)ccc2o1` (stereo not drawn) [p-chlorophenyl, X = H, 5-[(2-(2-(4-chlorophenyl)-5-methyl-4-oxazolyl)methyl)-5-benzofuranylmethyl]-2,4thiazolidinedione] belongs 0.05 mg/kg; to `Cc1ccc(-c2nc(Cc3cc4cc(CC5SC(=O)NC5=O)ccc4o3)c(C)o2)cc1` (stereo not drawn) [p-methylphenyl, X = H, 5-[(2-(5-methyl-2-(4-methylphenyl)-4-oxazolyl)-methyl)-5-benzofuranylmethyl]-2,4-thiazolidinedione], 0.05 mg/kg. The same measure, in the same setting: the same measure for `Cc1oc(-c2ccccc2)nc1Cc1cc2cc(CC3SC(=O)NC3=O)ccc2o1` (stereo not drawn) [phenyl, X = H, 5-[(2-(5-Methyl-2-phenyl-4-oxazolyl)methyl)-5-benzofuranylmethyl]-2,4-thiazolidinedione]: 0.01 mg/kg; for `Cc1oc(C(C)(C)C)nc1Cc1cc2cc(CC3SC(=O)NC3=O)ccc2o1` (stereo not drawn) [tert-butyl, X = H, 5-[(2-(5-methyl-2-(1,1-dimethylethyl)-4-oxazolyl)-methyl)-5-benzofuranylmethyl]-2,4-thiazolidinedione]: 0.10 mg/kg.

The assay is the same for the next values; noted with them: ob/ob mouse; dosed daily for five days; positive control ciglitazone 50 mg/kg; X = OH; 7200 min.
Regarding `Cc1oc(-c2cccc(F)c2)nc1C(O)c1cc2cc(CC3SC(=O)NC3=O)ccc2o1` (stereo not drawn) [m-fluorophenyl, X = OH, reference compound], the “ED50 (EP 299620A, X = OH): concentration required to give hypoglycemic activity equivalent to 50% of the positive control” value is reported as 0.50 mg/kg. On the same count and under the same terms, to `Cc1cccc(-c2nc(C(O)c3cc4cc(CC5SC(=O)NC5=O)ccc4o3)c(C)o2)c1` (stereo not drawn) [m-methylphenyl, X = OH, reference compound] belongs 0.05 to 0.1 mg/kg. Same read-out and setting: the same measure for `Cc1oc(-c2ccccc2F)nc1C(O)c1cc2cc(CC3SC(=O)NC3=O)ccc2o1` (stereo not drawn) [o-fluorophenyl, X = OH, reference compound]: 0.50 mg/kg. The same measure, in the same setting: the same measure for `Cc1ccccc1-c1nc(C(O)c2cc3cc(CC4SC(=O)NC4=O)ccc3o2)c(C)o1` (stereo not drawn) [o-methylphenyl, X = OH, reference compound]: > 1 mg/kg; for `Cc1oc(-c2ccccc2)nc1C(O)c1cc2cc(CC3SC(=O)NC3=O)ccc2o1` (stereo not drawn) [phenyl, X = OH, 5-[(2-(5-Methyl-2-phenyl-4-oxazolyl)hydroxymethyl)-5-benzofuranylmethyl]-2,4-thiazolidinedione, reference compound]: 0.25 mg/kg.

The assay is the same for the next values; noted with them: positive control (50 mg/kg) of ciglitazone, daily for five days; vehicle e.g. 250 mg/dl.
As to `CC1(COc2ccc(CC3SC(=O)NC3=O)cc2)CCCCC1` (stereo not drawn) [positive control, ciglitazone, reference compound], the “glucose level of positive control animals” value is ~130 mg/dL.
